From PubChem BioAssay (NCI) come the findings set out here.

Holding throughout (test): NCI-60 cell line screen, 48 h
For assay [1], the system named is OVCAR-5 ovarian.
Assay [2] has as its system NCI-H23 lung.
Assay [3] concerns HL-60(TB) leukemia.
For assay [4], the system named is HOP-92 NSCLC.
In assay [5] the test system is SK-OV-3 ovarian.
Assay [6] deals with NCI-H460 lung.
The subject of assay [7] is NCI-H226 lung.
Assay [8] has as its system OVCAR-8 ovarian.
Assay [9] relates to SF-295 CNS.
Assay [10] deals with A549 NSCLC.
In assay [11] the test system is U251 CNS.
In assay [12] the test system is CCRF-CEM leukemia.
Assay [13] concerns CAKI-1 renal.
The test system of assay [14] is OVCAR-3 ovarian.
In assay [15] the test system is LOX IMVI melanoma.
Assay [16] has as its system T-47D breast.
Assay [17] deals with TK-10 renal.
The subject of assay [18] is MALME-3M melanoma.
Assay [19] has as its system 786-0 renal.

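Where inhibition never reached the appropriate level, the endpoint shown equals the highest concentration tested. Otherwise, values were interpolated linearly from a five-concentration, 48-hour dose response in 96-well plates. At the TGI there is no net growth.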

On to `COc1cccc(Cc2cc(=O)c3ccc(C)nc3[nH]2)c1`, for which the TGI in [1], in assay [2], in assay [3], in assay [4], in [5] and in assay [6] was greater than 100 µM in each case. Moreover, the TGI in [7], in assay [8], in [9], in assay [10], in assay [11] and in assay [12] was greater than 100 µM each time. In addition, the TGI in assay [13], in assay [14], in [15], in assay [16], in assay [17] and in assay [18] was greater than 100 µM each time. This molecule showed a TGI in assay [19] greater than 100 µM.

For the molecule `Cc1nc2c(o1)C(=O)c1ccccc1C2=Nc1ccc(N2CCOCC2)cc1`, the TGI was 33.6 µM in assay [1]; 7.62 µM in [2]; 7.24 µM in assay [3]; greater than 100 µM in [4]; greater than 100 µM in assay [5]; 26.8 µM in assay [6]. The TGI in [7] was 42.1 µM; in assay [8], greater than 27.7 µM; in assay [9] it was 5.98 µM; in assay [10], 17.8 µM; in assay [11], 14.4 µM; in [12], greater than 36.8 µM. The TGI in [13] came out at 42.7 µM; in assay [14] it was 5.12 µM; in assay [15] it was 8.62 µM; in [16], 19 µM; in [17], 99.1 µM; in assay [18], 3.25 µM. The molecule also yielded a TGI in [19] of 61 µM.

Regarding `CC(=O)N1CC(=O)N2C(=O)/C(=C/c3ccc(Cl)cc3)N=C12`, the TGI in assay [1] is greater than 100 µM; in [2], greater than 100 µM; in assay [3], 56.4 µM; in assay [4], greater than 100 µM; in assay [5], greater than 100 µM; in assay [6], greater than 100 µM. Further, the TGI in assay [7], in assay [8], in assay [9], in assay [10], in assay [11] and in assay [12] was greater than 100 µM in each case. Further, the TGI in [13], in assay [14], in assay [15], in assay [16], in assay [17] and in assay [18] was greater than 100 µM in each case. This molecule also gave a TGI in [19] greater than 100 µM.

On to `Cc1ccc(C)c2c1CC(Cc1ccccc1C(=O)O)C2=O` (stereo not given), for which the TGI in assay [1], in assay [2], in assay [3], in [4], in assay [5] and in [6] was greater than 100 µM each time. For the same molecule, the TGI in assay [7], in assay [8], in assay [9], in [10], in [11] and in assay [12] was greater than 100 µM each time. Besides, the TGI in [13], in [14], in [15], in [16], in [17] and in assay [18] was greater than 100 µM throughout. In addition, the TGI in assay [19] is greater than 100 µM.

Consider `COc1ccc(/C(CC2OC(=O)c3ccccc32)=N\NC(=O)C[N+](C)(C)C)cc1` (stereo not given), for which the TGI in [1] is greater than 100 µM; in [2], 47.7 µM; in assay [3], greater than 100 µM; in assay [4], 67.8 µM; in assay [5] it was greater than 100 µM; in [6], 66.7 µM. Also, the TGI was 62.6 µM in assay [7]; 52.9 µM in assay [8]; greater than 100 µM in assay [9]; greater than 100 µM in [10]; 36.3 µM in assay [11]; 72 µM in assay [12]. Also, the TGI is greater than 100 µM in [13]; greater than 100 µM in assay [14]; 65.9 µM in assay [15]; greater than 100 µM in assay [16]; 87.8 µM in [17]; greater than 100 µM in assay [18]. The same molecule returned a TGI in assay [19] of 69.3 µM.

Turning to `O=c1c2cc([N+](=O)[O-])ccc2n2n1CCCC2`, the TGI in [1], in assay [2], in assay [3], in [4], in assay [5] and in [6] was greater than 100 µM throughout. Besides, the TGI in assay [7], in [8], in assay [9], in assay [10], in assay [11] and in [12] was greater than 100 µM throughout. For the same molecule, the TGI in assay [13], in assay [14], in assay [15], in assay [16], in assay [17] and in [18] was greater than 100 µM each time. Moreover, the TGI in assay [19] was greater than 100 µM.

For `CN1CCN(CCCCN2c3ccccc3Sc3cc(N=[N+]=[N-])ccc32)CC1`, the TGI in assay [1] is 25.8 µM; in assay [2], 18.7 µM; in assay [3], 6.08 µM; in [4], 6.43 µM; in [5], 22 µM; in [6], 3.8 µM. The TGI turned out to be 12.6 µM in assay [7]; 3.85 µM in assay [8]; 5.65 µM in assay [9]; 3.93 µM in [10]; 7.83 µM in assay [11]; 4.66 µM in [12]. The TGI in assay [13] was found to be 5.32 µM; in assay [14] it was 6.53 µM; in assay [15], 3.22 µM; in assay [16], 31.9 µM; in assay [17] it was 3.43 µM; in assay [18], 3.28 µM. Further, the TGI in assay [19] was 3.03 µM.

On to `CC(C)=CCN1c2ccc(Cl)cc2NC(=O)CC1C` (stereo not given), for which the TGI in assay [1] is greater than 100 µM; in [2] it was 74.9 µM; in [3] it was greater than 100 µM; in [4], 37.8 µM; in [5] it was greater than 100 µM; in [6], 37.6 µM. Moreover, the TGI is 46.9 µM in assay [7]; 39.6 µM in assay [8]; greater than 100 µM in assay [9]; greater than 100 µM in assay [10]; 76.6 µM in [11]; greater than 100 µM in [12]. Further, the TGI is 43.8 µM in assay [13]; 36 µM in assay [14]; 33.2 µM in assay [15]; greater than 100 µM in assay [16]; 87.7 µM in [17]; 49.6 µM in assay [18]. In addition, the TGI in assay [19] amounted to 34.8 µM.

Consider `COc1cc(S(=O)(=O)Nc2nc(-c3ccc(N4C(=O)/C(=C/c5ccccc5[N+](=O)[O-])N=C4c4ccccc4)cc3)cs2)ccc1Cl`, for which the TGI in assay [1], in assay [2], in [3], in [4], in [5] and in assay [6] was greater than 100 µM throughout. The TGI in [7], in assay [8], in assay [9], in assay [10], in assay [11] and in assay [12] was greater than 100 µM throughout. The TGI in assay [13], in assay [14], in [15], in [16], in [17] and in assay [18] was greater than 100 µM each time. This molecule also showed a TGI in assay [19] greater than 100 µM.

Turning to `CC(=O)OCCOc1cc2c([nH]c3ccccc32)c(C)c2cccc1-2`, the TGI in assay [1] was determined as 9.11 µM; in [2] it was 5.17 µM; in assay [3] it was 12.9 µM; in [4] it was 5.32 µM; in assay [5], 18.5 µM; in assay [6] it was 7.6 µM. Moreover, the TGI in assay [7] is 25 µM; in assay [8] it was 7.68 µM; in assay [9], 15.2 µM; in assay [10], greater than 32.2 µM; in assay [11], 3.16 µM; in assay [12] it was greater than 30 µM. Moreover, the TGI in assay [13] turned out to be 6.14 µM; in [14], 4.97 µM; in assay [15] it was 6.57 µM; in assay [16], 5.57 µM; in [17], 5.4 µM; in assay [18], 5.64 µM. The TGI in assay [19] came out at 11 µM.

As for `NS(=O)(=O)c1ccc(Nc2c3ccccc3nc3c(C(=O)NCCO)cccc23)cc1`, the TGI in [1] is 0.358 µM; in assay [2] it was 0.293 µM; in assay [3], greater than 1 µM; in assay [4] it was 0.618 µM; in assay [5], 0.649 µM; in [6] it was 0.186 µM. Moreover, the TGI is 0.296 µM in [7]; 0.902 µM in [8]; 0.605 µM in assay [9]; 0.448 µM in [10]; 0.205 µM in [11]; greater than 1 µM in assay [12]. Also, the TGI in assay [13] came out at 0.546 µM; in assay [14], 0.318 µM; in assay [15] it was 0.267 µM; in [16] it was 0.169 µM; in [17], 0.726 µM; in assay [18] it was 0.268 µM. This molecule registered a TGI in assay [19] of 0.283 µM.

For the molecule `CCCCCCCCCCCCCCCCOCC(CCl)OP(=O)(O)OP(=O)(O)OCC1OC(n2ccc(N)nc2=O)C(O)C1O` (stereo not given), the TGI in assay [1], in [2], in [3], in assay [4], in [5] and in [6] was greater than 100 µM in each case. The TGI in [7], in [8], in assay [9], in [10], in assay [11] and in [12] was greater than 100 µM each time. Also, the TGI in [13], in assay [14], in assay [15], in assay [16], in assay [17] and in assay [18] was greater than 100 µM in each case. In addition, the TGI in assay [19] is greater than 100 µM.

Consider `Clc1ccc(-c2ccc(-c3nn4c(CNc5ccccc5)nnc4s3)o2)c(Cl)c1`, for which the TGI in assay [1], in assay [2], in [3], in assay [4], in assay [5] and in assay [6] was greater than 100 µM each time. The TGI in assay [7], in assay [8], in assay [9], in assay [10], in assay [11] and in assay [12] was greater than 100 µM throughout. Further, the TGI in [13], in [14], in [15], in assay [16], in assay [17] and in assay [18] was greater than 100 µM each time. In assay [19], this molecule came in with a TGI greater than 100 µM.

Consider `COC1CC(NC(=O)C(F)(F)F)C(OC(C)=O)C(C)O1` (stereo not given), for which the TGI in assay [1], in assay [2], in assay [3], in [4], in assay [5] and in [6] was greater than 100 µM in each case. For the same molecule, the TGI in assay [7], in assay [8], in assay [9], in assay [10], in [11] and in [12] was greater than 100 µM in each case. For the same molecule, the TGI in [13], in [14], in [15], in assay [16], in [17] and in assay [18] was greater than 100 µM each time. Also, the TGI in [19] is greater than 100 µM.

As for `Nc1nc(Nc2ccccc2)sc1C(=O)c1cccs1`, the TGI in assay [1] worked out at 32.1 µM; in assay [2], 38.1 µM; in [3] it was 12.5 µM; in assay [4], 71 µM; in assay [5] it was 90.2 µM; in [6] it was 24.5 µM. Also, the TGI in assay [7] amounted to 39.7 µM; in [8], 78.4 µM; in assay [9] it was 66.6 µM; in assay [10], 41.7 µM; in assay [11], 40.8 µM; in [12] it was 16.6 µM. Moreover, the TGI is 62.3 µM in assay [13]; greater than 28.2 µM in [14]; 27.3 µM in assay [15]; greater than 59.3 µM in assay [16]; 46.8 µM in [17]; 37.3 µM in assay [18]. For the same molecule, the TGI in assay [19] turned out to be 28.6 µM.
